# Results: ChEMBL document CHEMBL4024712, “Synthesis, stability and mechanistic studies of potent anticryptococcal hexapeptides” (Eur J Med Chem, 2017)
# Non-standard residues stand in square brackets, D forms with d. Residues, ends and D or L forms follow the SMILES beside them. His(τ-Bzl) = N[C@@H](Cc1cn(Cc2ccccc2)cn1)C(=O)O; Phe(4-Me) = Cc1ccc(C[C@H](N)C(=O)O)cc1; Cha = N[C@@H](CC1CCCCC1)C(=O)O; Phg = N[C@H](C(=O)O)c1ccccc1; Orn = NCCC[C@H](N)C(=O)O; Dab = NCC[C@H](N)C(=O)O
# Columns and labels:
# [1] = test system: Vero; experiment: Cytotoxicity against African green monkey Vero cells up to 10 ug/ml after 48 hrs by neutral red dye based assay; type: cell-based; conditions: chlorocebus sabaeus
# [2] = test system: Nakaseomyces glabratus; experiment: Antifungal activity against Candida glabrata ATCC 90030 after 18 to 24 hrs by Alamar blue assay; type: functional
# [3] = test system: Mycobacterium intracellulare; experiment: Anti-bacterial activity against Mycobacterium intracellulare ATCC 23068 after 68 to 72 hrs by Alamar blue assay; type: functional, cell-based
# [4] = test system: Candida albicans; experiment: Antifungal activity against Candida albicans ATCC 90028 after 18 to 24 hrs by Alamar blue assay; type: functional
# [5] = test system: Aspergillus fumigatus; experiment: Antifungal activity against Aspergillus fumigatus ATCC 90906 after 68 to 72 hrs by Alamar blue assay; type: functional
# [6] = test system: Escherichia coli; experiment: Anti-bacterial activity against Escherichia coli ATCC 35218 by CLSI method; type: functional
# [7] = test system: Pseudomonas aeruginosa; experiment: Anti-bacterial activity against Pseudomonas aeruginosa ATCC 27853 by CLSI method; type: functional
# [8] = test system: Cryptococcus neoformans; experiment: Antifungal activity against Cryptococcus neoformans ATCC 90113 after 68 to 72 hrs by Alamar blue assay; type: functional
# [9] = test system: Pichia kudriavzevii; experiment: Antifungal activity against Candida krusei ATCC 6258 after 18 to 24 hrs by Alamar blue assay; type: functional
# [10] = test system: Cryptococcus neoformans; experiment: Fungicidal activity against Cryptococcus neoformans ATCC 90113 after 68 to 72 hrs by Alamar blue assay; type: functional
structure (smiles),measurement,setting,value
Cc1ccc(C[C@H](NC(=O)[C@@H](Cc2ccccc2)NC(=O)[C@@H](Cc2c[nH]c3ccccc23)NC(=O)[C@@H](N)CCN)C(=O)N[C@H](Cc2ccccc2)C(=O)N[C@@H](Cc2cn(Cc3ccccc3)cn2)C(N)=O)cc1 (H-[Dab][dW][dF][Phe(4-Me)][dF][His(τ-Bzl)]-NH2),Activity,[1],Non-Toxic
same,IC50,[2],Not Active
same,IC50,[3],Not Active
same,IC50,[4],Not Active
same,IC50,[5],Not Active
same,IC50,[6],Not Active
same,IC50,[7],Not Active
CC[C@H](C)[C@H](NC(=O)[C@H](CC1CCCCC1)NC(=O)[C@H](Cc1ccccc1)NC(=O)[C@@H](N)CCCN)C(=O)N[C@H](Cc1ccccc1)C(=O)N[C@@H](Cc1cn(Cc2ccccc2)cn1)C(N)=O (H-[Orn]F[Cha]I[dF][His(τ-Bzl)]-NH2),Activity,[1],Non-Toxic
same,IC50,[2],Not Active
same,IC50,[3],Not Active
same,MIC,[8],2.5 µg/mL
same,IC50,[4],Not Active
same,IC50,[5],Not Active
same,IC50,[7],Not Active
same,IC50,[9],Not Active
CC[C@H](C)[C@H](NC(=O)[C@H](CC1CCCCC1)NC(=O)[C@H](CC(C)C)NC(=O)[C@@H](N)CCCN)C(=O)N[C@H](Cc1ccccc1)C(=O)N[C@@H](Cc1cn(Cc2ccccc2)cn1)C(N)=O (H-[Orn]L[Cha]I[dF][His(τ-Bzl)]-NH2),Activity,[1],Non-Toxic
same,IC50,[2],Not Active
same,IC50,[3],Not Active
same,MFC,[10],2.5 µg/mL
same,IC50,[4],Not Active
same,IC50,[5],Not Active
same,IC50,[7],Not Active
same,IC50,[9],Not Active
CC[C@H](C)[C@H](NC(=O)[C@H](CC1CCCCC1)NC(=O)[C@@H](NC(=O)[C@@H](N)CCCN)c1ccccc1)C(=O)N[C@H](Cc1ccccc1)C(=O)N[C@@H](Cc1cn(Cc2ccccc2)cn1)C(N)=O (H-[Orn][Phg][Cha]I[dF][His(τ-Bzl)]-NH2),Activity,[1],Non-Toxic
same,IC50,[2],Not Active
same,IC50,[3],Not Active
same,IC50,[4],Not Active
same,IC50,[5],Not Active
same,IC50,[7],Not Active
same,IC50,[9],Not Active
CC[C@H](C)[C@H](NC(=O)[C@H](CC1CCCCC1)NC(=O)[C@@H](Cc1ccccc1)NC(=O)[C@@H](N)CCCN)C(=O)N[C@H](Cc1ccccc1)C(=O)N[C@@H](Cc1cn(Cc2ccccc2)cn1)C(N)=O (H-[Orn][dF][Cha]I[dF][His(τ-Bzl)]-NH2),Activity,[1],Non-Toxic
same,IC50,[2],Not Active
same,MFC,[10],1.25 µg/mL
same,IC50,[4],Not Active
same,IC50,[5],Not Active
same,IC50,[7],Not Active
same,IC50,[9],Not Active
CC[C@H](C)[C@H](NC(=O)[C@H](CC1CCCCC1)NC(=O)[C@@H](CC(C)C)NC(=O)[C@@H](N)CCCN)C(=O)N[C@H](Cc1ccccc1)C(=O)N[C@@H](Cc1cn(Cc2ccccc2)cn1)C(N)=O (H-[Orn][dL][Cha]I[dF][His(τ-Bzl)]-NH2),Activity,[1],Non-Toxic
same,IC50,[2],Not Active
same,MIC,"[3]; Mycobacterium intracellulare, ATCC 23068",20 µg/mL
same,MIC,[8],1.25 µg/mL
same,IC50,[4],Not Active
same,IC50,[5],Not Active
same,IC50,[7],Not Active
same,IC50,[9],Not Active
CC[C@@H](C)[C@@H](NC(=O)[C@H](CC1CCCCC1)NC(=O)[C@@H](Cc1c[nH]c2ccccc12)NC(=O)[C@@H](N)CCCN)C(=O)N[C@H](Cc1ccccc1)C(=O)N[C@@H](Cc1cn(Cc2ccccc2)cn1)C(N)=O (H-[Orn][dW][Cha][dI][dF][His(τ-Bzl)]-NH2),Activity,[1],Non-Toxic
same,IC50,[2],Not Active
same,IC50,[5],Not Active
same,IC50,[7],Not Active
O=C(O)c1cn(C2CC2)c2cc(N3CCNCC3)c(F)cc2c1=O [CIPROFLOXACIN],IC50,"[3]; Mycobacterium intracellulare, ATCC 23068, read-out: IC50",0.47 µg/mL
